Assay results: article PMC4336331, “Novel Receptor-Derived Cyclopeptides to Treat Heart Failure Caused by Anti-β1-Adrenoceptor Antibodies in a Human-Analogous Rat Model” (PLoS ONE, 2015)
Peptide text beside a SMILES is read from it.

Legend:
[1] = system: anti-β1EC2-induced β1-AR/cAMP signaling in HEKβ1-cells; experiment: FRET cAMP assay (Epac1-camps), blockade of anti-β1EC2-induced signals; assay type: cell-based, human; settings: HEKβ1-cells with Epac1-camps FRET-sensor; IgG pre-incubated with peptide (Fig. 1F)
Procedure: The effects of anti-β1EC2 on β1AR-mediated intracellular cAMP-production were assessed by measuring fluorescence resonance energy transfer (FRET) in HEKβ1-cells transiently transfected with a FRET-sensor for cAMP, Epac1-camps. The sensor consists of the cAMP-binding protein Epac1 flanked by enhanced cyan or yellow fluorescent protein. […] IgG-preparations were added to the cells at 0.13 μg/μl protein concentration; 2μM (-)isoproterenol (Sigma) was used as a reference to determine the maximal cAMP-response. To test the blocking-efficacy of β1EC2-CP on anti-β1EC2-induced adrenergic signaling, the different IgG-preparations were pre-incubated with β1EC2-CP (20 μg/μl) for 6 h at 4 °C; for pharmacological blockade of anti-β1EC2-induced signals we utilised 5.0μM bisoprolol.
(D) Immunostaining experiments with rat anti- β1EC2 (1:100) using HEK-cells stably expressing β1-ARs (HEK β1) or not (wild type; HEK WT). IgG was prepared from anti- β1EC2-positive rats or 0.9% NaCl-injected control rats. Amino-terminal β1AR-specific rabbit anti-bodies (1:250) served as positive controls. […] HEK β1-cells were transfected with the cAMP-sensor Epac1-camps, which reacts to cAMP-binding with a reduction in fluorescence resonance energy transfer (FRET) between its fluorophores cyan (CFP) and yellow fluorescent protein (YFP). […] Representative FRET-ratio traces of 1/5 experiments are shown. Values are given in % of maximal cAMP-response achieved with 0.3μM (-)isoproterenol (Iso).

[2] = Half-life of β1EC2-peptides in rat whole blood ex vivo; settings: for Half-life in whole blood, in words: ex vivo incubation experiments with whole blood (Fig. 1G); for half-life: rat, whole blood
[3] = system: anti-β1EC2-induced heart failure (β1EC2/GST-FP-immunised rats); experiment: Heart histology (fibrotic scars, TUNEL, mast cells), therapy-study; assay type: in vivo, Lewis/CrlBR rats; settings: for number of myocardial fibrotic scars, in words: midventricular 2μm-sections (Fig. 3A and B); for TUNEL-positive apopotic cells, in words: midventricular 2μm-sections (Fig. 3C); for increase in cardiac mast cells, in words: toluidine blue, mono- or co-treatment (Fig. 3E)
Text: Fig 3 Histology of rat hearts (therapy-study). (A) Representative H&E-stained 2μm cross-sections of hearts (from the left to the right) from a control rat, an immunised untreated rat, a bisoprolol- and a β1EC2-CP mono-treated rat, and a β1EC2-CP/bisoprolol co-treated rat. (B) Quantification of fibrotic scars in midventricular 2μm-sections (mvhs, mid-ventricular heart-section). Columns ± error bars represent the mean number of fibrotic scars ±SEM per 3 heart sections in the indicated groups. (C) TUNEL-assay with 2μm-mvhs. Columns ± error bars represent mean numbers ±SEM of apoptotic cells (kind of cells not specified) /3 mvhs. (D) qRT-PCR of apical cardiac tissues. Columns ± error bars represent the expression of the indicated pro-fibrotic markers ±SEM in the indicated treatment-groups normalised to controls. (E) Mast cells in 2μm paraffin-mvhs from the indicated treatment-groups; columns ± error bars represent the mean numbers ±SEM of mast cells/mm^2 cardiac tissue. For all parameters shown, differences between the treatment-groups were assessed by […] one way ANOVA and Dunnett`s post-hoc test; *p<0.05; **p<0.001.

[4] = system: anti-β1EC2-induced heart failure (β1EC2/GST-FP-immunised rats); experiment: Left heart catheterisation (haemodynamics), prevention-study; assay type: in vivo, Lewis/CrlBR rats; settings: LV catheterisation month 16, mean ±SEM
Procedure: (§1) In brief, n = 76 two months old Lewis/CrlBR rats were either s.c. immunised with 50 μg β1EC2/GST-FP, or n = 38 rats were control-injected with 0.9% NaCl (t = 0). To maintain high anti-β1EC2-titers, all immunised rats were boosted with β1EC2/GST-FP (or 0.9% NaCl) every month over 20 months as previously described. Application of the different linear or cyclic β1-AR peptides (corresponding to the primary AA-sequence of either the first (β1EC1) or the 2nd extra-cellular β1-AR loop (β1EC2)) or the β1-receptor blocker bisoprolol was initiated either 6 weeks after the 1st immunisation (i.e. 15 days after the 1st boost, prevention-study), or 8.5 months after the 1st immunisation (therapy-study).

[5] = system: anti-β1EC2-induced heart failure (β1EC2/GST-FP-immunised rats); experiment: Echocardiography, catheterisation and histomorphology, prevention-study; assay type: in vivo, Lewis/CrlBR rats; settings: cardiac catheterisation, histomorphology
Procedure: as §1
In brief, the rats were lightly anaestetised (30 mg/kg ketamine-HCl and 5 mg/kg xylazine i.p.), shaved (chest), and placed supine on a special table. M-mode tracings were recorded at baseline (before immunisation), and subsequently every four months in the parasternal long and short axis views according to the guidelines of the American Society for Echocardiography. Pulsed-wave Doppler spectra were recorded from the apical five-chamber view and the velocity-time integral (VTI) of the transaortic flow served to calculate cardiac output (CO [ml/min] = Aortic VTI x (π [LV-outflow tract diameter/2]^2) x bpm).

[6] = system: IL1-β, TGF-β1 transcripts; experiment: qRT-PCR of cardiac profibrotic markers, therapy-study; assay type: in vivo, Lewis/CrlBR rats; settings: qRT-PCR of apical cardiac tissues, normalised to controls (Fig. 3D)
Procedure: Total RNA was isolated from frozen myocardium by RNeasy mini Kit (Qiagen, Hilden, Germany). Reverse transcription of total RNA isolated from frozen myocardium was performed in 96-well plates utilising a high capacity RNA-to-cDNA master mix (Applied Biosystems, Foster City, CA). PCR reactions were conducted in the presence of the fluorescent dye Sybr-Green (Cambrex BioScience, East Rutherford, NY) and the reference-dye 6-carboxy-X-rhodamine (ROX) using an ABI PRISM sequence detection system 7700 (Applied Biosystems). All amplification products were controlled for specificity by running a melting curve analysis; results were calculated using the 2^-ΔΔCT method. The relative expression levels were derived from a standard curve and normalised to GAPDH as an endogenous control. Quantitative real-time PCR (qRT-PCR) analyses are presented as fold change compared to untreated (0.9% NaCl-injected) control hearts. […]
Fig 3 Histology of rat hearts (therapy-study). […] (B) Quantification of fibrotic scars in midventricular 2μm-sections (mvhs, mid-ventricular heart-section). […] For all parameters shown, differences between the treatment-groups were assessed by […] one way ANOVA and Dunnett`s post-hoc test; *p<0.05; **p<0.001.

[7] = immunised anti-β1EC2-positive rats, from 6 weeks after 1st immunisation EC2-CP 1.0 mg/kg i.v. every 4 weeks or bisoprolol 15 mg/kg/day orally over 12 months
[8] = non-immunised 0.9% NaCl-injected rats, EC2-CP 1.0 mg/kg i.v. every 4 weeks or bisoprolol 15 mg/kg/day orally over 12 months

In the case of `CC(C)[C@H](NC(=O)[C@H](Cc1ccccc1)NC(=O)[C@H](CC(=O)O)NC(=O)[C@H](CS)NC(=O)[C@H](CS)NC(=O)[C@H](CCCCN)NC(=O)[C@@H]1CCCN1C(=O)[C@H](CC(=O)O)NC(=O)[C@H](CC(N)=O)NC(=O)[C@H](Cc1ccc(O)cc1)NC(=O)[C@H](CS)NC(=O)[C@H](CCCNC(=N)N)NC(=O)[C@H](CCCNC(=N)N)NC(=O)[C@H](C)NC(=O)[C@H](CCC(=O)O)NC(=O)[C@H](CC(=O)O)NC(=O)[C@H](CO)NC(=O)[C@H](CCC(=O)O)NC(=O)[C@H](C)NC(=O)[C@H](CCCNC(=N)N)NC(=O)[C@H](C)N)C(=O)N[C@H](C(=O)N[C@@H](CC(N)=O)C(=O)N[C@@H](CCCNC(=N)N)C(=O)NCC(N)=O)[C@@H](C)O` [β1EC2-Lin] (H-ARAESDEARRCYNDPKCCDFVTNRG-NH2; N-terminus and C-terminus assumed), the “blockade of anti-β1EC2-induced cAMP-signals, in words” value [1] was “inhibited”, the “Half-life in whole blood, in words” value [2] was “hours” and the half-life [2] was 0.167 days.

For `CC(C)[C@@H]1NC(=O)[C@H](Cc2ccccc2)NC(=O)[C@H](CC(=O)O)NC(=O)[C@H](CS)NC(=O)[C@H](CS)NC(=O)[C@H](CCCCN)NC(=O)[C@@H]2CCCN2C(=O)[C@H](CC(=O)O)NC(=O)[C@H](CC(N)=O)NC(=O)[C@H](Cc2ccc(O)cc2)NC(=O)[C@H](CS)NC(=O)[C@H](CCCNC(=N)N)NC(=O)[C@H](CCCNC(=N)N)NC(=O)[C@H](C)NC(=O)[C@H](CCC(=O)O)NC(=O)[C@H](CC(=O)O)NC(=O)[C@H](CO)NC(=O)[C@H](CCC(=O)O)NC(=O)[C@H](C)NC(=O)[C@H](CCCNC(=N)N)NC(=O)[C@H](C)NC(=O)[C@H](CCC(N)=O)NC(=O)CNC(=O)[C@H](CCCNC(=N)N)NC(=O)[C@H](CC(N)=O)NC(=O)[C@H]([C@@H](C)O)NC1=O` [β1EC2-CP] (cyclo(AESDEARRCYNDPKCCDFVTNRGQAR)), the “number of myocardial fibrotic scars, in words” value [3] was “returned to normal levels”, the “TUNEL-positive apopotic cells, in words” value [3] was “returned to normal levels” and the “increase in cardiac mast cells, in words” value [3] was “reversed to control levels”. For the same compound, the “blockade of anti-β1EC2-induced cAMP-signals, in words” value [1] was “inhibited”, the “-dP/dt (relaxation)” value [4, 7] was 5887 ±93 mmHg/s and the “HF (heart frequence)” value [4, 7] was 226 ±5 bpm. For the same compound, the “LVEDP (LV end-diastolic pressure)” value [4, 7] was 10.4 ±0.6 mmHg, the “LVSP (maximal systolic LV-pressure)” value [4, 7] was 127 ±4 mmHg and the “-dP/dt (relaxation)” value [4, 8] was 5986 ±288 mmHg/s. The “HF (heart frequence)” value [4, 8] was 232 ±7 bpm, the “LVEDP (LV end-diastolic pressure)” value [4, 8] was 10.1 ±1.4 mmHg and the “LVSP (maximal systolic LV-pressure)” value [4, 8] was 135 ±7 mmHg. For the same compound, the “Half-life in whole blood, in words” value [2] was “days”, the half-life [2] was 20.2 days and the “development of cardiomyopathy and heart failure, in words” value [5] was “able to prevent development of cardiomyopathy and heart failure”. For the same compound, the “reduction of the increases in cardiac transcripts of profibrotic markers (IL1-β, TGF-β1)” value [6] was about 50%.

With `CC(C)NCC(O)COc1ccc(COCCOC(C)C)cc1` (stereo not shown) [bisoprolol, reference compound] the “number of myocardial fibrotic scars, in words” value [3] was “not seen”, the “TUNEL-positive apopotic cells, in words” value [3] was “not seen” and the “increase in cardiac mast cells, in words” value [3] was “reversed to control levels”. The “+dP/dt (contractilility)” value [4, 7] was 6768 ±106 mmHg/s, the “-dP/dt (relaxation)” value [4, 7] was 5532 ±78 mmHg/s and the “HF (heart frequence)” value [4, 7] was 178 ±9 bpm. For the same compound, the “LVEDP (LV end-diastolic pressure)” value [4, 7] was 8.3 ±0.6 mmHg, the “LVSP (maximal systolic LV-pressure)” value [4, 7] was 106 ±3 mmHg and the “+dP/dt (contractilility)” value [4, 8] was 7012 ±419 mmHg/s. For the same compound, the “-dP/dt (relaxation)” value [4, 8] was 5619 ±155 mmHg/s, the “HF (heart frequence)” value [4, 8] was 173 ±17 bpm and the “LVEDP (LV end-diastolic pressure)” value [4, 8] was 10.6 ±1.5 mmHg. The “LVSP (maximal systolic LV-pressure)” value [4, 8] was 107 ±11 mmHg, the “development of cardiomyopathy and heart failure, in words” value [5] was “able to prevent development of cardiomyopathy and heart failure” and the “reduction of the increases in cardiac transcripts of profibrotic markers (IL1-β, TGF-β1)” value [6] was about 50%.
